Data on three compounds can be found in ChEMBL document CHEMBL6096644, “Synthesis and structure-affinity relationships of spirocyclic σ1 receptor ligands with tetrahydropyran scaffold” (Eur J Med Chem, 2025).

One data set in a line: physchem. The following applies: n-octanol/MOPS aqueous buffer, pH 7.4.
Data set [1] is described as follows: in vitro. Particulars: human, human serum.
Description: Plasma protein binding in human serum by HPAC analysis
Data set [2] can be described thus: in vitro. Particulars: mouse, liver microsomes.
Description: Metabolic stability in mouse liver microsomes assessed as parent compound remaining measured after 90 mins in presence of NADPH/H+ by HPLC analysis

Description for physchem: Distribution coefficient, logD of compound in n-Octanol/MOPS aqueous buffer at pH 7.4 by shake-flask method based mass spectrometry analysis

One may read the logD as lipophilicity at a set pH, counting ionised and neutral species. Read a low logD as lower lipophilicity. By fraction unbound is commonly meant the share of the substance not bound to proteins or other matrix. Higher therefore signals weak binding. As a reminder, the amount remaining is what is left of the initial amount, in per cent. With `O=c1oc2ccccc2n1C1CCOC2(CCN(Cc3ccccc3)CC2)C1` (stereo not given), the logD in “physchem” was determined as 2.42. The same compound showed a fraction unbound in the data set “in vitro [1]” of 0.15. For the same compound, the share remaining at 1.5 h in the data set “in vitro [2]” is 74%.
Compound `Oc1cccc(CN2CCC3(CC2)CC(CCc2ccccc2)CCO3)c1` (stereo not given) showed a logD in “physchem” of 3.33.
In turn, `c1cc2c(cc1C1CCOC3(CCN(CC4CCCC4)CC3)C1)CCO2` (stereo not given) gave a logD in the data set “physchem” of 2.34.
